PubChem BioAssay AID2060348 (Molecular Pharmacology Branch, DTP, NCI, 2025)

System: 885724-159-R-J1-PDC spheroids viability
Experiment: Anticancer human tumor 885724-159-R-J1-PDC patient-derived pancreatic adenocarcinoma cell line growth inhibition [TAK]
Conditions: spheroids with HUVEC and MSC; for IC50: curve of first compound; for viability, T/C: stronger effect = lower value
How it was run: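 Drug combinations, each paired with TAK-243 or ipatasertib, were tested on multi-cell spheroids of 60% malignant cells, 25% HUVEC and 15% hMSC. Top concentrations were at or near the clinical Cmax (10 microM if undetermined), decreasing by half-log; viability is given as % test/control.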
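Also: spheroids exposed to drugs for seven days.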
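For viability, T/C in this document: 100% = DMSO vehicle control viability.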

For `CC(=O)Nc1cccc(-n2c(=O)n(C3CC3)c(=O)c3c(Nc4ccc(I)cc4F)n(C)c(=O)c(C)c32)c1` + CC(C)NCC(C(=O)N1CCN(c2ncnc3c2C(C)CC3O)CC1)c1ccc(Cl)cc1, which IC50 (second compound 0.3 µM) is on record?
The IC50 was 0.357 nM.

What about the IC50 (second compound 0.949 µM) of the same compound?
Its IC50 is 0.148 nM.

And the IC50 (second compound 3 µM)?
Its IC50 is 0.118 nM.

And the IC50 (second compound 9.49 µM)?
Its IC50 is < 0.0949 nM.

What about the IC50 (second compound 30 µM) of the same compound?
Its IC50 is < 0.0949 nM.

What about the viability, T/C (second compound 0.3 µM, first compound 94.9 pM) of the same compound?
The viability, T/C was 62.1%.

What about the viability, T/C (second compound 0.3 µM, first compound 0.0003 µM) of the same compound?
The viability, T/C was 52.4%.

What about the viability, T/C (second compound 0.3 µM, first compound 0.000949 µM) of the same compound?
The viability, T/C was 39.4%.

And the viability, T/C (second compound 0.3 µM, first compound 0.003 µM)?
Its viability, T/C is 29.7%.

What about the viability, T/C (second compound 0.3 µM, first compound 0.00949 µM) of the same compound?
The viability, T/C was 19.8%.

And the viability, T/C (second compound 0.3 µM, first compound 0.03 µM)?
The viability, T/C was 12.7%.

And the viability, T/C (second compound 0.949 µM, first compound 94.9 pM)?
The viability, T/C was 51.8%.

What about the viability, T/C (second compound 0.949 µM, first compound 0.0003 µM) of the same compound?
The viability, T/C was 46.9%.

What about the viability, T/C (second compound 0.949 µM, first compound 0.000949 µM) of the same compound?
The viability, T/C was 39.5%.

What about the viability, T/C (second compound 0.949 µM, first compound 0.003 µM) of the same compound?
Its viability, T/C is 26.4%.

What about the viability, T/C (second compound 0.949 µM, first compound 0.00949 µM) of the same compound?
Its viability, T/C is 16.5%.

What about the viability, T/C (second compound 0.949 µM, first compound 0.03 µM) of the same compound?
Its viability, T/C is 9.03%.

And the viability, T/C (second compound 3 µM, first compound 94.9 pM)?
Its viability, T/C is 50.9%.

What about the viability, T/C (second compound 3 µM, first compound 0.0003 µM) of the same compound?
The viability, T/C was 47%.

And the viability, T/C (second compound 3 µM, first compound 0.000949 µM)?
Its viability, T/C is 37.3%.

And the viability, T/C (second compound 3 µM, first compound 0.003 µM)?
Its viability, T/C is 27.7%.

What about the viability, T/C (second compound 3 µM, first compound 0.00949 µM) of the same compound?
Its viability, T/C is 12.6%.

What about the viability, T/C (second compound 3 µM, first compound 0.03 µM) of the same compound?
Its viability, T/C is 7.15%.

And the viability, T/C (second compound 9.49 µM, first compound 94.9 pM)?
The viability, T/C was 42.9%.

What about the viability, T/C (second compound 9.49 µM, first compound 0.0003 µM) of the same compound?
Its viability, T/C is 39.1%.

And the viability, T/C (second compound 9.49 µM, first compound 0.000949 µM)?
Its viability, T/C is 31.9%.

What about the viability, T/C (second compound 9.49 µM, first compound 0.003 µM) of the same compound?
The viability, T/C was 20.5%.

And the viability, T/C (second compound 9.49 µM, first compound 0.00949 µM)?
The viability, T/C was 9.73%.

What about the viability, T/C (second compound 9.49 µM, first compound 0.03 µM) of the same compound?
The viability, T/C was 4.47%.

And the viability, T/C (second compound 30 µM, first compound 94.9 pM)?
Its viability, T/C is 29.2%.

And the viability, T/C (second compound 30 µM, first compound 0.0003 µM)?
Its viability, T/C is 23.4%.

And the viability, T/C (second compound 30 µM, first compound 0.000949 µM)?
Its viability, T/C is 15.1%.

And the viability, T/C (second compound 30 µM, first compound 0.003 µM)?
Its viability, T/C is 6.5%.

What about the viability, T/C (second compound 30 µM, first compound 0.00949 µM) of the same compound?
The viability, T/C was 4.94%.

And the viability, T/C (second compound 30 µM, first compound 0.03 µM)?
The viability, T/C was 2.14%.

With `CC(C)CC(NC(=O)CNC(=O)c1cc(Cl)ccc1Cl)B1OC(=O)CC(CC(=O)O)(C(=O)O)O1` (stereo not given) + CC(C)NCC(C(=O)N1CCN(c2ncnc3c2C(C)CC3O)CC1)c1ccc(Cl)cc1 as the compound, how does the IC50 (second compound 0.3 µM) read?
Its IC50 is 13.8 nM.

What about the IC50 (second compound 0.949 µM) of the same compound?
Its IC50 is 12.1 nM.

And the IC50 (second compound 3 µM)?
The IC50 was 11.6 nM.

And the IC50 (second compound 9.49 µM)?
Its IC50 is < 0.316 nM.

And the IC50 (second compound 30 µM)?
The IC50 was < 0.316 nM.

What about the viability, T/C (second compound 0.3 µM, first compound 0.000316 µM) of the same compound?
Its viability, T/C is 66.6%.

And the viability, T/C (second compound 0.3 µM, first compound 0.001 µM)?
The viability, T/C was 66.3%.

And the viability, T/C (second compound 0.3 µM, first compound 0.00316 µM)?
Its viability, T/C is 63.6%.

What about the viability, T/C (second compound 0.3 µM, first compound 0.01 µM) of the same compound?
Its viability, T/C is 63.3%.

What about the viability, T/C (second compound 0.3 µM, first compound 0.0316 µM) of the same compound?
Its viability, T/C is 15.4%.

And the viability, T/C (second compound 0.3 µM, first compound 0.1 µM)?
Its viability, T/C is 1.16%.

What about the viability, T/C (second compound 0.949 µM, first compound 0.000316 µM) of the same compound?
Its viability, T/C is 57.5%.

What about the viability, T/C (second compound 0.949 µM, first compound 0.001 µM) of the same compound?
Its viability, T/C is 61%.

What about the viability, T/C (second compound 0.949 µM, first compound 0.00316 µM) of the same compound?
The viability, T/C was 62.2%.

What about the viability, T/C (second compound 0.949 µM, first compound 0.01 µM) of the same compound?
Its viability, T/C is 58.3%.

What about the viability, T/C (second compound 0.949 µM, first compound 0.0316 µM) of the same compound?
The viability, T/C was 8.98%.

And the viability, T/C (second compound 0.949 µM, first compound 0.1 µM)?
The viability, T/C was 1.18%.

And the viability, T/C (second compound 3 µM, first compound 0.000316 µM)?
Its viability, T/C is 55.5%.

And the viability, T/C (second compound 3 µM, first compound 0.001 µM)?
The viability, T/C was 58.3%.

What about the viability, T/C (second compound 3 µM, first compound 0.00316 µM) of the same compound?
Its viability, T/C is 53.1%.

What about the viability, T/C (second compound 3 µM, first compound 0.01 µM) of the same compound?
Its viability, T/C is 55.9%.

What about the viability, T/C (second compound 3 µM, first compound 0.0316 µM) of the same compound?
The viability, T/C was 11.1%.

What about the viability, T/C (second compound 3 µM, first compound 0.1 µM) of the same compound?
Its viability, T/C is 0.99%.

What about the viability, T/C (second compound 9.49 µM, first compound 0.000316 µM) of the same compound?
Its viability, T/C is 48.5%.

What about the viability, T/C (second compound 9.49 µM, first compound 0.001 µM) of the same compound?
The viability, T/C was 52.1%.

What about the viability, T/C (second compound 9.49 µM, first compound 0.00316 µM) of the same compound?
The viability, T/C was 48.5%.

What about the viability, T/C (second compound 9.49 µM, first compound 0.01 µM) of the same compound?
The viability, T/C was 46.1%.

And the viability, T/C (second compound 9.49 µM, first compound 0.0316 µM)?
Its viability, T/C is 9.27%.

What about the viability, T/C (second compound 9.49 µM, first compound 0.1 µM) of the same compound?
Its viability, T/C is 1.07%.

What about the viability, T/C (second compound 30 µM, first compound 0.000316 µM) of the same compound?
The viability, T/C was 33.9%.

What about the viability, T/C (second compound 30 µM, first compound 0.001 µM) of the same compound?
Its viability, T/C is 33.5%.

And the viability, T/C (second compound 30 µM, first compound 0.00316 µM)?
The viability, T/C was 34.7%.

And the viability, T/C (second compound 30 µM, first compound 0.01 µM)?
Its viability, T/C is 32.9%.

And the viability, T/C (second compound 30 µM, first compound 0.0316 µM)?
The viability, T/C was 7.76%.

And the viability, T/C (second compound 30 µM, first compound 0.1 µM)?
Its viability, T/C is 0.71%.
